{"source": "ChEMBL document CHEMBL1201862", "about": "“PubChem BioAssay data set” (2004)", "assay_in_all_cases": "NCI anticancer screen, dose series, 48 h", "key": {"[1]": {"tested_on": "A549"}, "[2]": {"tested_on": "BT-549"}, "[3]": {"tested_on": "CCRF-CEM"}, "[4]": {"tested_on": "HCC 2998"}, "[5]": {"tested_on": "HCT-116"}, "[6]": {"tested_on": "HL-60"}, "[7]": {"tested_on": "IGROV-1"}, "[8]": {"tested_on": "M19-MEL"}, "[9]": {"tested_on": "MDA-MB-435"}, "[10]": {"tested_on": "MOLT-4"}, "[11]": {"tested_on": "NCI-H23"}, "[12]": {"tested_on": "NCI-H460"}, "[13]": {"tested_on": "NCI/ADR-RES"}, "[14]": {"tested_on": "OVCAR-4"}, "[15]": {"tested_on": "OVCAR-8"}, "[16]": {"tested_on": "PC-3"}, "[17]": {"tested_on": "SK-MEL-2"}, "[18]": {"tested_on": "SNB-75"}, "[19]": {"tested_on": "SW-620"}, "[20]": {"tested_on": "U-251"}}, "note": "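Cultured in 96-well plates, cells were exposed to test compound for 48 hours across five concentrations. The concentration for 50% growth inhibition is given as GI50.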 Activity calls are given as the source filed them. Rule as the data show it: active = GI50 up to about 1.1 µM and inactive = higher.", "data": [{"smiles": "Cc1c(/N=C\\c2ccc(N(CCC#N)CCC#N)cc2)c(=O)n(-c2ccccc2)n1C", "values": [{"measurement": "GI50", "setting": "[1]", "value": "82600 nM (inactive)"}, {"measurement": "GI50", "setting": "[2]", "value": "> 100000 nM (inactive)"}, {"measurement": "GI50", "setting": "[3]", "value": "> 100000 nM (inactive)"}, {"measurement": "GI50", "setting": "[4]", "value": "> 100000 nM (inactive)"}, {"measurement": "GI50", "setting": "[5]", "value": "> 100000 nM (inactive)"}, {"measurement": "GI50", "setting": "[6]", "value": "> 100000 nM (inactive)"}, {"measurement": "GI50", "setting": "[7]", "value": "> 93500 nM (inactive)"}, {"measurement": "GI50", "setting": "[8]", "value": "> 100000 nM (inactive)"}, {"measurement": "GI50", "setting": "[9]", "value": "> 100000 nM (inactive)"}, {"measurement": "GI50", "setting": "[10]", "value": "> 100000 nM (inactive)"}, {"measurement": "GI50", "setting": "[11]", "value": "> 100000 nM (inactive)"}, {"measurement": "GI50", "setting": "[12]", "value": "> 100000 nM (inactive)"}, {"measurement": "GI50", "setting": "[13]", "value": "> 100000 nM (inactive)"}, {"measurement": "GI50", "setting": "[14]", "value": "> 100000 nM (inactive)"}, {"measurement": "GI50", "setting": "[15]", "value": "> 100000 nM (inactive)"}, {"measurement": "GI50", "setting": "[16]", "value": "> 100000 nM (inactive)"}, {"measurement": "GI50", "setting": "[17]", "value": "> 96600 nM (inactive)"}, {"measurement": "GI50", "setting": "[18]", "value": "20700 nM (inactive)"}, {"measurement": "GI50", "setting": "[19]", "value": "> 100000 nM (inactive)"}, {"measurement": "GI50", "setting": "[20]", "value": "39200 nM (inactive)"}]}, {"smiles": "O=[As]O", "values": [{"measurement": "GI50", "setting": "[1]", "value": "> 100000 nM (inactive)"}, {"measurement": "GI50", "setting": "[2]", "value": "41300 nM (inactive)"}, {"measurement": "GI50", "setting": "[3]", "value": "15600 nM (inactive)"}, {"measurement": "GI50", "setting": "[4]", "value": "> 100000 nM (inactive)"}, {"measurement": "GI50", "setting": "[5]", "value": "> 93300 nM (inactive)"}, {"measurement": "GI50", "setting": "[6]", "value": "9820 nM (inactive)"}, {"measurement": "GI50", "setting": "[7]", "value": "28000 nM (inactive)"}, {"measurement": "GI50", "setting": "[8]", "value": "20500 nM (inactive)"}, {"measurement": "GI50", "setting": "[9]", "value": "> 100000 nM (inactive)"}, {"measurement": "GI50", "setting": "[10]", "value": "> 56800 nM (inactive)"}, {"measurement": "GI50", "setting": "[11]", "value": "> 48300 nM (inactive)"}, {"measurement": "GI50", "setting": "[12]", "value": "> 100000 nM (inactive)"}, {"measurement": "GI50", "setting": "[13]", "value": "> 100000 nM (inactive)"}, {"measurement": "GI50", "setting": "[14]", "value": "> 91600 nM (inactive)"}, {"measurement": "GI50", "setting": "[15]", "value": "> 43800 nM (inactive)"}, {"measurement": "GI50", "setting": "[16]", "value": "> 100000 nM (inactive)"}, {"measurement": "GI50", "setting": "[17]", "value": "> 59600 nM (inactive)"}, {"measurement": "GI50", "setting": "[18]", "value": "> 51100 nM (inactive)"}, {"measurement": "GI50", "setting": "[19]", "value": "> 64100 nM (inactive)"}, {"measurement": "GI50", "setting": "[20]", "value": "23200 nM (inactive)"}]}, {"smiles": "COc1cc2c(cc1OC)C(OC)N(C)c1c-2ccc2cc3c(cc12)OCO3", "note": "(stereo not given)", "values": [{"measurement": "GI50", "setting": "[1]", "value": "201 nM (active)"}, {"measurement": "GI50", "setting": "[2]", "value": "3060 nM (inactive)"}, {"measurement": "GI50", "setting": "[3]", "value": "653 nM (active)"}, {"measurement": "GI50", "setting": "[4]", "value": "1650 nM (inactive)"}, {"measurement": "GI50", "setting": "[5]", "value": "1660 nM (inactive)"}, {"measurement": "GI50", "setting": "[6]", "value": "2220 nM (inactive)"}, {"measurement": "GI50", "setting": "[7]", "value": "805 nM (active)"}, {"measurement": "GI50", "setting": "[8]", "value": "1190 nM (inactive)"}, {"measurement": "GI50", "setting": "[9]", "value": "69000 nM (inactive)"}, {"measurement": "GI50", "setting": "[10]", "value": "611 nM (active)"}, {"measurement": "GI50", "setting": "[11]", "value": "1670 nM (inactive)"}, {"measurement": "GI50", "setting": "[12]", "value": "486 nM (active)"}, {"measurement": "GI50", "setting": "[13]", "value": "26800 nM (inactive)"}, {"measurement": "GI50", "setting": "[14]", "value": "4930 nM (inactive)"}, {"measurement": "GI50", "setting": "[15]", "value": "1720 nM (inactive)"}, {"measurement": "GI50", "setting": "[16]", "value": "1330 nM (inactive)"}, {"measurement": "GI50", "setting": "[17]", "value": "1980 nM (inactive)"}, {"measurement": "GI50", "setting": "[18]", "value": "708 nM (active)"}, {"measurement": "GI50", "setting": "[19]", "value": "571 nM (active)"}, {"measurement": "GI50", "setting": "[20]", "value": "356 nM (active)"}]}, {"smiles": "CCc1ccc(/C=C\\c2cc(OC)c(OC)c(OC)c2)cc1", "values": [{"measurement": "GI50", "setting": "[1]", "value": "22.3 nM (active)"}, {"measurement": "GI50", "setting": "[2]", "value": "180 nM (active)"}, {"measurement": "GI50", "setting": "[3]", "value": "9.98 nM (active)"}, {"measurement": "GI50", "setting": "[4]", "value": "49.2 nM (active)"}, {"measurement": "GI50", "setting": "[5]", "value": "10.7 nM (active)"}, {"measurement": "GI50", "setting": "[6]", "value": "5.3 nM (active)"}, {"measurement": "GI50", "setting": "[7]", "value": "49.3 nM (active)"}, {"measurement": "GI50", "setting": "[8]", "value": "163 nM (active)"}, {"measurement": "GI50", "setting": "[9]", "value": "2.04 nM (active)"}, {"measurement": "GI50", "setting": "[10]", "value": "43 nM (active)"}, {"measurement": "GI50", "setting": "[11]", "value": "46.1 nM (active)"}, {"measurement": "GI50", "setting": "[12]", "value": "23.5 nM (active)"}, {"measurement": "GI50", "setting": "[13]", "value": "2.86 nM (active)"}, {"measurement": "GI50", "setting": "[14]", "value": "617 nM (active)"}, {"measurement": "GI50", "setting": "[15]", "value": "45.6 nM (active)"}, {"measurement": "GI50", "setting": "[16]", "value": "3.25 nM (active)"}, {"measurement": "GI50", "setting": "[17]", "value": "112 nM (active)"}, {"measurement": "GI50", "setting": "[18]", "value": "23.4 nM (active)"}, {"measurement": "GI50", "setting": "[19]", "value": "8.97 nM (active)"}, {"measurement": "GI50", "setting": "[20]", "value": "10.2 nM (active)"}]}, {"smiles": "C=C(C)[C@H]1Cc2c(ccc3c2O[C@@H]2COc4cc(OC)c(OC)cc4[C@@H]2C3=O)O1", "note": "[ROTENONE]", "values": [{"measurement": "GI50", "setting": "[1]", "value": "78.5 nM (active)"}, {"measurement": "GI50", "setting": "[2]", "value": "164 nM (active)"}, {"measurement": "GI50", "setting": "[3]", "value": "951 nM (active)"}, {"measurement": "GI50", "setting": "[4]", "value": "316 nM (active)"}, {"measurement": "GI50", "setting": "[5]", "value": "61.8 nM (active)"}, {"measurement": "GI50", "setting": "[6]", "value": "61.1 nM (active)"}, {"measurement": "GI50", "setting": "[7]", "value": "126 nM (active)"}, {"measurement": "GI50", "setting": "[8]", "value": "55.9 nM (active)"}, {"measurement": "GI50", "setting": "[9]", "value": "20.6 nM (active)"}, {"measurement": "GI50", "setting": "[10]", "value": "693 nM (active)"}, {"measurement": "GI50", "setting": "[11]", "value": "25.8 nM (active)"}, {"measurement": "GI50", "setting": "[12]", "value": "89.1 nM (active)"}, {"measurement": "GI50", "setting": "[13]", "value": "63.5 nM (active)"}, {"measurement": "GI50", "setting": "[14]", "value": "577 nM (active)"}, {"measurement": "GI50", "setting": "[15]", "value": "257 nM (active)"}, {"measurement": "GI50", "setting": "[16]", "value": "155 nM (active)"}, {"measurement": "GI50", "setting": "[17]", "value": "171 nM (active)"}, {"measurement": "GI50", "setting": "[18]", "value": "152 nM (active)"}, {"measurement": "GI50", "setting": "[19]", "value": "131 nM (active)"}, {"measurement": "GI50", "setting": "[20]", "value": "224 nM (active)"}]}]}
